# Patent US20080200454A1, “CARBON-LINKED TETRAHYDRO-PYRAZOLO-PYRIDINE MODULATORS OF CATHEPSIN S” (priority 2007, published 2008)
# Molecular target: Recombinant human cathepsin S (CatS) (Homo sapiens, UniProt P25774)
# Test: Recombinant human cathepsin S (CatS) inhibition assay, fluorogenic substrate Z-Valine-Valine-Arginine-AMC;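 note: Baculovirus-expressed CatS in pH 5.0 sodium acetate buffer with DTT and NaCl, fluorescence read each minute over 20 min, inhibition derived from rate slope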
# Details: not given
# Chain of Recombinant human cathepsin S (CatS) (P25774 115-331): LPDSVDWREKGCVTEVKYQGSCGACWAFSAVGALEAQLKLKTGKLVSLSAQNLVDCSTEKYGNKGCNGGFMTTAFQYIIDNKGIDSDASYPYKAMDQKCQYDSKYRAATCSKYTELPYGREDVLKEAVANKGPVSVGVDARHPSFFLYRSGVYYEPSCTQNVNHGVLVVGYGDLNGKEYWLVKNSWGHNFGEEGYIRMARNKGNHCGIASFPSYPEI
row,SMILES,IC50
1,"COc1ccc(CCc2cc(-c3nn(CCCN4CCOCC4)c4c3CN(S(C)(=O)=O)CC4)ccc2Cl)cc1 [Example 58, 3-{4-Chloro-3-[2-(4-methoxy-phenyl)-ethyl]-phenyl}-5-methanesulfonyl-1-(3-morpholin-4-yl-propyl)-4,5,6,7-tetrahydro-1H-pyrazolo[4,3-c]pyridine]",530 nM
2,"CS(=O)(=O)N1CCc2c(c(-c3ccc(Cl)c(C#Cc4ccc(Cl)cc4)c3)nn2CC(O)CN2CCC(C(N)=O)CC2)C1 (stereo not drawn) [Example 128, 1-(3-{3-[4-Chloro-3-(4-chloro-phenylethynyl)-phenyl]-5-methanesulfonyl-4,5,6,7-tetrahydro-pyrazolo[4,3-c]pyridin-1-yl}-2-hydroxy-propyl)-piperidine-4-carboxylic acid amide]",110 nM
3,"CS(=O)(=O)N1CCc2c(c(-c3ccc(Cl)c(C#Cc4cccnc4)c3)nn2CCCN2CCOCC2)C1 [Example 21, 3-(4-Chloro-3-pyridin-3-ylethynyl-phenyl)-5-methanesulfonyl-1-(3-morpholin-4-yl-propyl)-4,5,6,7-tetrahydro-1H-pyrazolo[4,3-c]pyridine]",1320 nM
4,"NC(=O)C(=O)N1CCc2c(c(-c3ccc(Cl)c(C#Cc4ccc(Cl)c(CN5CCOCC5)c4)c3)nn2CCCN2CCCCC2)C1 [Example 601, 2-[3-(4-Chloro-3-{[4-chloro-3-(morpholin-4-ylmethyl)phenyl]ethynyl}phenyl)-1-(3-piperidin-1-ylpropyl)-1,4,6,7-tetrahydro-5H-pyrazolo[4,3-c]pyridin-5-yl]-2-oxoacetamide]",30 nM
5,"CS(=O)(=O)N1CCc2c(c(-c3ccc(Cl)c(C#Cc4ccc(CNCc5ccc(Cl)cc5)cc4)c3)nn2CC(O)CN2CCCCC2)C1 (stereo not drawn) [Example 361, 1-[3-(4-Chloro-3-{[4-({[(4-chlorophenyl)methyl]amino}methyl)phenyl]ethynyl}phenyl)-5-(methylsulfonyl)-4,5,6,7-tetrahydro-1H-pyrazolo[4,3-c]pyridin-1-yl]-3-piperidin-1-ylpropan-2-ol]",170 nM

# Same assay, conditions: CatS IC50
row,SMILES,IC50
1,"C[C@H]1COCCN1CCCn1nc(-c2ccc(Cl)c(C#Cc3ccc4c(c3)CNCC4)c2)c2c1CCN(S(C)(=O)=O)C2 [Example 278, 7-({2-Chloro-5-[1-{3-[(3S)-3-methylmorpholin-4-yl]propyl}-5-(methylsulfonyl)-4,5,6,7-tetrahydro-1H-pyrazolo[4,3-c]pyridin-3-yl]phenyl}ethynyl)-1,2,3,4-tetrahydroisoquinoline]",110 nM
2,"CS(=O)(=O)N1CCc2c(c(-c3ccc(Cl)c(C#Cc4ccccn4)c3)nn2C[C@@H](O)CN2CCC(C3CCNCC3)CC2)C1 [Example 473, (2S)-1-(4,4′-Bipiperidin-1-yl)-3-{3-[4-chloro-3-(pyridin-2-ylethynyl)phenyl]-5-(methylsulfonyl)-4,5,6,7-tetrahydro-1H-pyrazolo[4,3-c]pyridin-1-yl}propan-2-ol]",120 nM
3,"CS(=O)(=O)N1CCc2c(c(-c3ccc(Cl)c(C#Cc4ccc(CNCc5ccc(Cl)cc5)cc4)c3)nn2CCCN2CCC(F)(F)CC2)C1 [Example 357, 1-{4-[(2-Chloro-5-{1-[3-(4,4-difluoropiperidin-1-yl)propyl]-5-(methylsulfonyl)-4,5,6,7-tetrahydro-1H-pyrazolo[4,3-c]pyridin-3-yl}phenyl)ethynyl]phenyl}-N-[(4-chlorophenyl)methyl]methanamine]",210 nM
4,"CS(=O)(=O)N1CCc2c(c(-c3ccc(Cl)c(C#Cc4ccc(CNCc5ccc(Cl)cc5)cc4)c3)nn2CCCN2CCN(c3ccccc3O)CC2)C1 [Example 407, 2-(4-{3-[3-(4-Chloro-3-{[4-({[(4-chlorophenyl)methyl]amino}methyl)phenyl]ethynyl}phenyl)-5-(methylsulfonyl)-4,5,6,7-tetrahydro-1H-pyrazolo[4,3-c]pyridin-1-yl]propyl}piperazin-1-yl)phenol]",20 nM
